We go through one compound from publication PMC7144209, “Design, synthesis and anticancer activity of naphthoquinone derivatives” (Journal of Enzyme Inhibition and Medicinal Chemistry, 2020).

In assay [1] the test system is SGC-7901 cells. Put plainly: Annexin V-FITC/PI apoptosis assay (flow cytometry). It counts as cell-based, human. To be noted: 48 h; for total apoptosis: control 4.34%. The procedure:
After the indicated treatments for 48 h, cells were collected, washed three times with cold PBS, centrifuged and resuspended with 400 μL AnnexinV binding buffer per tube. Then the cells were stained with 5μLAnnexinV-FITC and incubated in the dark for 10 min on ice. Finally, 10 μL PI staining solution was added, and cells were detected by the flow cytometry after incubated in the dark for 5 min. Flowjo 7.6.1 software was used to analyse the cell apoptosis.
(§1) Apoptosis is one of the main methods that result in cell death. In this study, Annexin V-FITC/PI kit was used to evaluate the cell apoptosis. […] To further, investigate whether the cell apoptosis induced by title compound, Western blot analysis was used to measure the effect of the compound on apoptosis of SGC-7901 cell. As reported that apoptosis pathway could be regulated by the activation of PARP and Bcl2 family proteins[40]^,[41].
For orientation: A flow cytometer gives signals particle by particle.

Assay [2] concerns SGC-7901 cells. Put plainly: Colony formation assay. It counts as cell-based, human. As to conditions: SGC-7901, 2, 4, 8 μM, 12 d. As to the method:
SGC-7901 cells (8000/well) were seeded in 6-well plate, and treated with indicated concentrations of compound 12 (2 μM, 4 μM, 8 μM) for 12 d. The medium was removed and methanol (500 μL/well) was added to fix at the cells for 3 min. Then cells were stained with giemsa working fluid for 15 min and washed with PBS. The number of colonies was counted.

A further assay relates to SGC-7901. Put plainly: MTT cell viability assay, SGC-7901 cells. Type of assay: cell-based, human. To be noted: n = 3. The procedure: (§2) MGC-803, SGC-7901, U87 and SMMC-7721 cell lines were cultured in DMEM supplemented with 10% foetal bovine serum, 100 IU/mL penicillin/streptomycin. The cells were incubated in an atmosphere containing 5% CO2 at 37 °C.
(§3) MGC-803, SGC-7901, U87 and SMMC-7721 cells were plated in 96-well plate at 7000 per well. Cells were incubated with the different concentrations of the compounds for 48 h. Subsequently, MTT (0.5 mg/mL) were used to test the cell viability, then 150 μL DMSO was added to each well after cells were incubated for 4 h and the absorbance was measured at 492 nm.
(Tetrazolium assays rely on reduction of a dye to a coloured formazan, in cell work by metabolically active cells.)

Assay [3] relates to Bax, Bcl-2, cleaved PARP in SGC-7901 cells. Put plainly: Western blot of apoptosis-related proteins. Type of assay: cell-based, human. As to the method: RIPA lysis buffer was used to dissociate the treated cells. Cells were lysed and the supernatant was harvested after centrifuged for 30 min. The cell proteins were separated using Sodium dodecyl sulphate-polyacrylamide gel electrophoresis, and then they were transferred to the PVDF membranes. The membranes were blocked with skimmed milk solution (5%) for 2 h, then incubated with primary antibodies (1:1000, cst) for 20 h at 4 °C. The membranes were detected by chemiluminescence reagent after probed with the secondary antibody for 1 h.
as §1
In general terms: Immunoblotting shows a protein as a band on a membrane.

Another assay deals with SMMC-7721. Put plainly: MTT cell viability assay, SMMC-7721 cells. It counts as cell-based. As to conditions: Homo sapiens, 48 h, n = 3. As to the method: as §2, §3
Where [4] appears, read: SGC-7901, increasing concentration (1, 2, 4 μM).

Broadly, the IC50 is the concentration needed to halve the response being measured. The low end stands for greater potency, the high end for weaker potency. On to `CC(C)=CCC(OC(=O)CCC(=O)Nc1ccc(Oc2ccccc2)cc1)C1=CC(=O)c2c(O)ccc(O)c2C1=O` (stereo not drawn) [Compound 12, 1-(5,8-dihydroxy-1,4-dioxo-1,4-dihydronaphthalen-2-yl)-4-methylpent-3-en-1-yl-4-oxo-4-((4-phenoxyphenyl)amino)butanoate], for which the total apoptosis in the assay on SGC-7901 cells [1] (SGC-7901, 1 μM) was 6.45%; in the assay on SGC-7901 cells [1] (SGC-7901, 2 μM), 9.72%; in the assay with SGC-7901 cells [1] (SGC-7901, 4 μM) it was 19.9%. Further, in the assay on SGC-7901 cells [1] (compound 12 4 μM, 3-MA 500 μM), the “apoptosis rate in the presence of 3-MA compared with compound 12 alone” value is given as “decreased”. For the same compound, in the assay with SGC-7901 cells [2], the “number of colonies vs control” value is reported as “decreased”. For the same compound, the IC50 in the assay with SGC-7901 (48 h) turned out to be 4.1 ± 2.6 µM; with SGC-7901 (Homo sapiens, SGC-7901, 48 h), 4.09 µM; with SMMC-7721, 20.6 ± 0.4 µM. In addition, in assay [3] (setting [4]), the “level of Bax” value is given as “up-regulated”. Further, the “level of Bcl2” value in assay [3] (setting [4]) was “down-regulated”. Also, the “level of cleaved PARP” value in assay [3] (setting [4]) was “up-regulated”. In addition, in assay [3] (compound 12 with 3-MA 500 μM, 48 h), the “up-regulation of Bax and cl-PARP and down-regulation of Bcl-2 in the group with 3-MA” value is reported as “inhibited”.
